Test results: patent US10125100B2, “Kinase inhibitors” (Respivert Limited, priority 2014, dated 2018)

Key:
[1] = tested on: mitosis in PBMCs; experiment: (g) Cell mitosis assay; type: cell-based; conditions: Homo sapiens, PBMC, 5 μg/mL
Experimental: Peripheral blood mononucleocytes (PBMCs) from healthy subjects are separated from whole blood (Quintiles, London, UK) using a density gradient (Histopaque®-1077, Sigma-Aldrich, Poole, UK). The PBMCs (3 million cells per sample) are subsequently treated with 2% PHA (phytohaemagglutinin, Sigma-Aldrich, Poole, UK) for 48 hr, followed by a 20 hr exposure to varying concentrations of test compounds. At 2 hr before collection, PBMCs are treated with demecolcine (0.1 μg/mL; Invitrogen, Paisley, UK) to arrest cells in metaphase. To observe mitotic cells, PBMCs are permeabilized and fixed by adding Intraprep (50 μL; Beckman Coulter, France), and stained with anti-phospho-histone 3 ([…]; #9701; Cell Signalling, Danvers, Mass.) and propidium iodide (1 mg/mL; Sigma-Aldrich, Poole, UK) as previously described (Muehlbauer P. A. and Schuler M. J., Mutation Research, 2003, 537:117-130). Fluorescence is observed using an ATTUNE flow cytometer (Invitrogen, Paisley, UK), gating for lymphocytes.

[2] = target: c-Src (Homo sapiens (Human), UniProt P12931); experiment: c-Src enzyme inhibition, Z-LYTE FRET; type: biochemical
Chain of c-Src (P12931 whole entry, looked up): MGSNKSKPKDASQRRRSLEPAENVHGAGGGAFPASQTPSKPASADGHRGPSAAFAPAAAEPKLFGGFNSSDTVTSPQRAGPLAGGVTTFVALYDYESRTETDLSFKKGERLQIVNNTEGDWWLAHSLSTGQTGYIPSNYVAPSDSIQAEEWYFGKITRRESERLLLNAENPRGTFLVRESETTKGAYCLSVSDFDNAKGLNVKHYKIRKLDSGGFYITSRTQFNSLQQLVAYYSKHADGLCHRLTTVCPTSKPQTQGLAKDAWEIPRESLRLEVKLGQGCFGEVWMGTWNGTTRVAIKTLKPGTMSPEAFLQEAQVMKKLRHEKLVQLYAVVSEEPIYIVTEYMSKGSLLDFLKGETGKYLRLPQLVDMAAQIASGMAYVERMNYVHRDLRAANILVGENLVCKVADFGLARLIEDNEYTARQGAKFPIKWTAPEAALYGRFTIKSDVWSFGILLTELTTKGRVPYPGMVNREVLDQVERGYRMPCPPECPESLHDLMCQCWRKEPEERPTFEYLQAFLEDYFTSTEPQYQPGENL
In short: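 Z-LYTE FRET peptide phosphorylation read as donor coumarin over acceptor fluorescein ratio after 1 hr protease development. Compounds (1–0.001 μg/mL) preincubated 2 hr at RT with enzyme; ATP solutions 60 μM for Syk, 800 μM for c-Src; kinase reaction 1 hr.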

[3] = tested on: Jurkat cells; experiment: (r) Cell cytotoxicity assay; type: cell-based, human; conditions: 24 hours
In short: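 Viability read by flow cytometry as the fraction of propidium iodide-negative cells (7.5 μg/mL PI, 15 min), relative to 1.0% DMSO control. Beforehand, 1×10^5 Jurkat cells in RPMI/10% FBS were treated 24 h at 37° C., 5% CO2 with test compound at final 20, 5 or 1 μg/mL.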

[4] = target: p38 MAPKα (MAPK14) (Homo sapiens (Human), UniProt Q16539); experiment: p38 MAPKα enzyme inhibition (Method 2), Z-LYTE FRET; type: biochemical
Chain of p38 MAPKα (MAPK14) (Q16539 whole entry): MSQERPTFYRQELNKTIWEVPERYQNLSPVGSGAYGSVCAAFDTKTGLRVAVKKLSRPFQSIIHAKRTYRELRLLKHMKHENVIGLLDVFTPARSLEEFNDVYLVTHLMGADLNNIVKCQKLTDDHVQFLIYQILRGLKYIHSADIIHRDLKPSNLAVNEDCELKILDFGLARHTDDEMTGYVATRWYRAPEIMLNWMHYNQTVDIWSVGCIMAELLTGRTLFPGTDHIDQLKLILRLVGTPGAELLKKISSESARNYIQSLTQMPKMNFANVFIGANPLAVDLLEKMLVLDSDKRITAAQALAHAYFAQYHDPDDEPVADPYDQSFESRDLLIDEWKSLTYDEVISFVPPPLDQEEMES
In short: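 Enzyme (200 ng/mL solution) was preincubated 2 h at RT with compound solutions of 1, 0.1, 0.01 or 0.001 μg/mL, and inhibition was read indirectly via MAPKAP-K2 activation/phosphorylation. After a 1 h RT reaction and 1 h protease development, phosphorylation was derived from the coumarin/fluorescein emission ratio.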

[5] = target: Syk (Homo sapiens (Human), UniProt P43405); experiment: Syk enzyme inhibition, Z-LYTE FRET; type: biochemical
In short: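 Syk or c-Src enzyme (3000 or 2000 ng/mL solutions) was preincubated 2 h at RT with compound solutions at 1, 0.1, 0.01 or 0.001 µg/mL. Z-LYTE FRET peptide (8 µM solution) and ATP (800 µM solution for c-Src, 60 µM for Syk) were then added for 1 h, followed by protease development for 1 h. Phosphorylation was read as the coumarin/fluorescein emission ratio.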

Structure (SMILES) | IC50 [2] [nM] | IC50 [4] [nM] | IC50 [5] [nM] | inhibition at 5 µg/mL [1] [%] | % Viability at 1 μg/mL [3] [%] | % Viability at 5 μg/mL [3] [%] | % Viability at 20 μg/mL [3] [%]
COc1cc(Nc2cc(Oc3ccc(NC(=O)Nc4cc(C(C)(C)C)cc(NS(C)(=O)=O)c4OC)c4ccccc34)ccn2)cc(OC)c1C(=O)NCCN1CCOCC1 [17(ae), 4-[[4-[[4-[[5-tert-butyl-3-(methanesulfonamido)-2-methoxy-phenyl]carbamoylamino]-1-naphthyl]oxy]-2-pyridyl]amino]-2,6-dimethoxy-N-(2-morpholinoethyl)benzamide] | 31 | 10 | 112 | 30.6 | 93.1 | 98.5 | 92.9
COc1cc(Nc2cc(Oc3ccc(NC(=O)Nc4cc(C(C)(C)C)cc(NS(C)(=O)=O)c4OC)c4ccccc34)ccn2)ccc1C(=O)NCCN1CCSCC1 [17(l), 4-[[4-[[4-[[5-tert-butyl-3-(methanesulfonamido)-2-methoxy-phenyl]carbamoylamino]-1-naphthyl]oxy]-2-pyridyl]amino]-2-methoxy-N-(2-thiomorpholinoethyl)benzamide] | 116 | 223 | 389 | 24.9 | 102.8 | 102.7 | 102.9
COc1cc(Nc2cc(Oc3ccc(NC(=O)Nc4cc(C(C)(C)C)cc(C(N)=O)c4OC)c4ccccc34)ccn2)ccc1C(=O)NCCN1CCOCC1 [Example 4, 4-((4-((4-(3-(5-(tert-Butyl)-3-carbamoyl-2-methoxyphenyl)ureido)naphthalen-1-yl)oxy)pyridin-2-yl)amino)-2-methoxy-N-(2-morpholinoethyl)benzamide] | 37 | 121 | 277 | 46.2 |  |  | 
COCCOCCOCCNC(=O)c1ccc(Nc2cc(Oc3ccc(NC(=O)Nc4cc(C(C)(C)C)cc(NS(C)(=O)=O)c4OC)c4ccccc34)ccn2)cc1OC [Example 5, 4-((4-((4-(3-(5-(tert-Butyl)-2-methoxy-3-(methylsulfonamido)phenyl)ureido)naphthalen-1-yl)oxy)pyridin-2-yl)amino)-2-methoxy-N-(2-(2-(2-methoxyethoxy)ethoxy)ethyl)benzamide] | 31 | 119 | 187 | 27.7 |  |  | 
COCCOCCOCCNC(=O)c1ccc(Nc2cc(Oc3ccc(NC(=O)Nc4cc(C(C)(C)C)cc(C(N)=O)c4OC)c4ccccc34)ccn2)cc1OC [Example 6, 4-((4-((4-(3-(5-(tert-Butyl)-3-carbamoyl-2-methoxyphenyl)ureido)naphthalen-1-yl)oxy)pyridin-2-yl)amino)-2-methoxy-N-(2-(2-(2-methoxyethoxy)ethoxy)ethyl)benzamide] | 36 | 137 | 315 | 28.8 |  |  | 
COc1c(NC(=O)Nc2ccc(Oc3ccnc(Nc4ccc(OCCN5CCOCC5)c(C#N)c4)c3)c3ccccc23)cc(C(C)(C)C)cc1NS(C)(=O)=O [Example 9, N-(5-(tert-Butyl)-3-(3-(4-((2-((3-cyano-4-(2-morpholinoethoxy)phenyl)amino)pyridin-4-yl)oxy)naphthalen-1-yl)ureido)-2-methoxyphenyl)methanesulfonamide] | 316 | 197 | > 1280 | 29.8 |  |  | 
COCCOCCOCC[S+]([O-])c1ccc(Nc2cc(Oc3ccc(NC(=O)Nc4cc(C(C)(C)C)cc(NS(C)(=O)=O)c4OC)c4ccccc34)ccn2)cc1OC (centres unmarked) [Example 11, N-(5-(tert-Butyl)-2-methoxy-3-(3-(4-((2-((3-methoxy-4-((2-(2-(2-methoxyethoxy)ethoxy)ethyl)sulfinyl)phenyl)amino)pyridin-4-yl)oxy)naphthalen-1-yl)ureido)phenyl)methanesulfonamide] | 76 | 35 | 318 | 26.6 |  |  | 
COCCOCCOCCS(=O)(=O)c1ccc(Nc2cc(Oc3ccc(NC(=O)Nc4cc(C(C)(C)C)cc(NS(C)(=O)=O)c4OC)c4ccccc34)ccn2)cc1OC [Example 12, 1-[5-tert-Butyl-3-(methanesulfonamido)-2-methoxy-phenyl]-3-[4-[[2-[3-methoxy-4-[2-[2-(2-methoxyethoxy)ethoxy]ethylsulfonyl]anilino]-4-pyridyl]oxy]-1-naphthyl]urea] | 209 | 23 | 831 | 22.1 | 74.5 | 81.8 | 82.9
C#Cc1cc(Nc2cc(Oc3ccc(NC(=O)Nc4cc(C(C)(C)C)cc(NS(C)(=O)=O)c4OC)c4ccccc34)ccn2)ccc1C(=O)NCCN1CCOCC1 [Example 15, 4-[[4-[[4-[[5-tert-Butyl-3-(methanesulfonamido)-2-methoxy-phenyl]carbamoylamino]-1-naphthyl]oxy]-2-pyridyl]amino]-2-ethynyl-N-(2-morpholinoethyl)benzamide] | 43 | 64 | 163 | 62.3 | 99.5 | 75.0 | 74.5

Stronger by IC50 [2], values ahead:

IC50 [2] [nM] | IC50 [4] [nM] | IC50 [5] [nM] | Structure (SMILES) | inhibition at 5 µg/mL [1] [%] | % Viability at 1 μg/mL [3] [%] | % Viability at 5 μg/mL [3] [%] | % Viability at 20 μg/mL [3] [%]
22 | 34 | 107 | COc1cc(Nc2cc(Oc3ccc(NC(=O)Nc4cc(C(C)(C)C)cc(NS(C)(=O)=O)c4OC)c4ccccc34)ccn2)ccc1C(=O)NCCOCCOCCO [Example 16, 4-[[4-[[4-[[5-tert-Butyl-3-(methanesulfonamido)-2-methoxy-phenyl]carbamoylamino]-1-naphthyl]oxy]-2-pyridyl]amino]-N-[2-[2-(2-hydroxyethoxy)ethoxy]ethyl]-2-methoxy-benzamide] | 50.1 | 90.1 | 52.5 | 19.1
21 | 20 | 172 | COc1cc(Nc2cc(Oc3ccc(NC(=O)Nc4cc(C(C)(C)C)cc(NS(C)(=O)=O)c4OC)c4ccccc34)ccn2)ccc1C(=O)NCCN1CCCCC1 [17(p), 4-[[4-[[4-[[5-tert-butyl-3-(methanesulfonamido)-2-methoxy-phenyl]carbamoylamino]-1-naphthyl]oxy]-2-pyridyl]amino]-2-methoxy-N-[2-(1-piperidyl)ethyl]benzamide] | 92 | 102.1 | 49.9 | 1.5
21 | 59 | 107 | COc1cc(Nc2cc(Oc3ccc(NC(=O)Nc4cc(C(C)(C)C)cc(NS(C)(=O)=O)c4OC)c4ccccc34)ccn2)ccc1C(=O)NCCN1CC[S+]([O-])CC1 [Example 7, 4-((4-((4-(3-(5-(tert-Butyl)-2-methoxy-3-(methylsulfonamido)phenyl)ureido)naphthalen-1-yl)oxy)pyridin-2-yl)amino)-2-methoxy-N-(2-(1-oxidothiomorpholino)ethyl)benzamide] | 59.9 |  |  | 
20 | 52 | 98 | COc1cc(Nc2cc(Oc3ccc(NC(=O)Nc4cc(C(C)(C)C)cc(NS(C)(=O)=O)c4OC)c4ccccc34)ccn2)ccc1C(=O)NCCCN1CCOCC1 [17(b), 4-[[4-[[4-[[5-tert-butyl-3-(methanesulfonamido)-2-methoxy-phenyl]carbamoylamino]-1-naphthyl]oxy]-2-pyridyl]amino]-2-methoxy-N-(3-morpholinopropyl)benzamide] | 58.9 | 102.8 | 93.8 | 79.3
19 | 10 | 92 | COc1cc(Nc2cc(Oc3ccc(NC(=O)Nc4cc(C(C)(C)C)cc(NS(C)(=O)=O)c4OC)c4ccccc34)ccn2)ccc1C(=O)NCCC1CCN(C)CC1 [Example 14, 4-[[4-[[4-[[5-tert-Butyl-3-(methanesulfonamido)-2-methoxy-phenyl]carbamoylamino]-1-naphthyl]oxy]-2-pyridyl]amino]-2-methoxy-N-[2-(1-methyl-4-piperidyl)ethyl]benzamide] | 60.1 | 101.9 | 98.8 | 0.7
